Type in all cases: in vivo
The subject of data set [1] is L 1210 lymphoid leukaemia. The data set is described as follows: Antitumor test in mice, L 1210 lymphoid leukaemia model (ILS %). Particulars: L 1210, i.p. suspension in methylcellulose, q 8 hrs × 6, 150 mg/kg. The source says: (§1) The compound N-(4-dimethylamino-2,2-diphenyl-3-methyl-1-butyl)-urea, (in the following called Lu 9-110), has been tested in mice given several daily/weekly injections against the following experimental model tumors:
L 1210 lymphoid leukaemia

Data set [2] is described as follows: Toxicity of Lu 9-110 (LD10, LD50). The settings on record: for LD50: mouse, in vivo, ip.
Data set [3] has as its system P 388 lymphocytic leukaemia. The data set is described as follows: Antitumor test in mice, P 388 lymphocytic leukaemia model (ILS %).
Description: as §1
P 388 lymphocytic leukaemia

A short description of data set [4]: Preliminary toxicity experiments over 1 and 4 weeks (myelosuppression). Particulars: repeated administration, mice.
Data set [5] concerns Ehrlich Ascites tumor (EAT). Put plainly: Antitumor test in mice, Ehrlich Ascites tumor (EAT) model (ILS %). The settings on record: i.p. suspension in methylcellulose, q 8 hrs × 6, 150 mg/kg.
Description: as §1
Ehrlich Ascites tumor (EAT)

The mark [6] stands for this setting: i.p. solution, accumulated dose.
[7] abbreviates: i.p. suspension, accumulated dose (independent of schedule).

As for `CC(CN(C)C)C(CNC(N)=O)(c1ccccc1)c1ccccc1` (stereo not shown) [Lu 9-110, N-(4-Dimethylamino-2,2-diphenyl-3-methyl-1-butyl)-urea], the ILS % in data set [1] is reported as 33%; in data set [3] (P 388, aqueous solution, q 3 hrs × 8, 50 mg/kg), 67%; in data set [3] (P 388, aqueous solution, q 8 hrs × 3, 100 mg/kg) it was 33%; in data set [3] (P 388, aqueous solution, ×1, 100 mg/kg), 9%; in data set [3] (P 388, i.p. suspension in methylcellulose, q 8 hrs × 6, 150 mg/kg), 92%; in data set [5], 120%. Also, the LD10 in data set [2] (setting [6]) was 300 to 500 mg/kg; in data set [2] (i.p. solution, single dose) it was ~ 100 mg/kg; in data set [2] (setting [7]), ~ 1100 mg/kg. Further, the LD50 – broadly, the dose at which mortality reaches 50% – in data set [2] (setting [6]) is 400 to 600 mg/kg; in data set [2] (i.p. solution, single dose), roughly 150 mg/kg; in data set [2] (setting [7]) it was roughly 1400 mg/kg. Also, in data set [4], the myelosuppression result is on record as “only very slight myelosuppression”.
